From publication PMC11554305, “Functional identification of soluble uric acid as an endogenous inhibitor of CD38” (eLife, 2024)

Tests used:
[1] = biological target: T1, CD38 (Mus musculus, UniProt P56528); experiment: Hydrolase and cyclase activities of human and murine CD38; format: biochemical; settings: lung tissues from WT mice, OA 0–5 mM
T1 construct: host or cells: recombinant hCD38, cells and mouse tissues
T1 sequence (P56528 1-304): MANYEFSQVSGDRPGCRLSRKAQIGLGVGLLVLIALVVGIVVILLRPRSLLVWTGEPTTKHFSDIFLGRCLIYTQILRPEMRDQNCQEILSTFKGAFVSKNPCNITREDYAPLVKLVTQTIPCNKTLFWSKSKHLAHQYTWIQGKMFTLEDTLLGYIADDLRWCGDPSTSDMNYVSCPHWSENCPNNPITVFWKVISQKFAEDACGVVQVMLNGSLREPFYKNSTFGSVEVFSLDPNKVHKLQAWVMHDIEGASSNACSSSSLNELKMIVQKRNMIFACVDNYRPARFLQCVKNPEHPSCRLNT
Protocol: (§1) The hydrolase activity of CD38 was measured according to a previous report ([de Oliveira et al., 2018]) with minor modifications. CD38 hydrolase activity was measured using 50 μM ε-NAD^+ as a substrate in hydrolase reaction buffer (250 mM sucrose, 40 mM Tris-HCl, pH 7.4). Briefly, cells or tissues were directly homogenized in blank reaction buffer on ice, and recombinant hCD38 was diluted in blank reaction buffer for subsequent assays. The tissue homogenates were centrifuged to collect the supernatant for enzyme assays. The loading volume of enzyme was 4–30 μL, the total volume of the reaction system was 3 mL. To detect enzyme inhibition, except when specified, the ligands were directly dissolved in hydrolase reaction buffer before pH adjustment, after which, the pH was immediately adjusted to 7.4. All reaction buffers, with or without ligands, were freshly prepared before each assay. For measurement of hydrolase activity, 3 mL reaction buffer containing enzyme, ε-NAD^+, and ligands at indicated concentrations was maintained at 37°C with constant stirring.
(§2) The cyclase activity of CD38 was measured as previously described ([Higashida et al., 1999]; [Jin et al., 2007]). CD38 cyclase activity was measured using 60 μM NGD as a substrate in cyclase reaction buffer (100 mM KCl, 10 μM CaCl2, and 50 mM Tris-HCl, pH 6.6). Tissues were cut into pieces and suspended in the buffer (5 mM MgCl2, 10 mM Tris-HCl, pH 7.3) at 4°C for 30 min. Then, the suspension was homogenized on ice, and the supernatant was collected after centrifugation. To collect the crude membrane fractions, the supernatant was centrifuged at 105,000×g for 30 min. The final pellet was resuspended in 10 mM Tris-HCl solution (pH 6.6) for cyclase assay. Homogenates of THP-1 or A549 cells, and recombinant hCD38 were used directly for cyclase assays. The loading volume of enzyme was 4–20 μL, the total volume of reaction system was 3 mL. To detect enzyme inhibition, except when specified, the ligands were directly dissolved in cyclase reaction buffer before pH adjustment, after which, the pH was immediately adjusted to 6.6. All reaction buffers, with or without ligands, were freshly prepared before each assay. For measurement of cyclase activity, 3 mL reaction buffer containing enzyme, NGD, and ligands at indicated concentrations was maintained at 37°C with constant stirring.
(§3) The reaction buffer for hydrolase or cyclase assays was excited at 300 nm, and fluorescence emission was measured every second at 410 nm by Shimazu RF-6000 spectrofluorometer. Hydrolase or cyclase activity was calculated from the linear portion of the time course by fitting a linear function to the data points recorded within 5 min.
(§4) Guanosine was dissolved in DMSO and diluted in the reaction buffer for subsequent assays.
(§5) For reversibility test, recombinant hCD38 was pre-incubated for 30 min in four conditions: (1) control reaction buffer; (2) in the presence of 100 μM substrate (ε-NAD^+ or NGD); (3) 500 μM sUA; (4) both substrate and sUA. Subsequently, the enzyme was diluted 100-fold in reaction buffer in the presence or absence of 500 μM sUA for activity assays using ε-NAD^+ or NGD. Naïve THP-1 and A549 cells were incubated with RPMI-1640 medium in the presence or absence of 500 μM sUA for 2 hr. The cells were collected and homogenized in the reaction buffer on ice with or without 500 μM sUA, samples were then diluted 100-fold in reaction buffer with or without 500 μM sUA for enzyme assay. Control group was not treated with sUA in all steps; sUA group was treated with sUA in each step; sUA release group was treated with sUA prior to dilution in sUA-free buffer for enzyme assays.

[2] = biological target: T2, CD38 (Homo sapiens, UniProt P28907); experiment: as above; format: biochemical
T2 construct: host or cells: recombinant hCD38, cells and mouse tissues
T2 sequence (P28907 43-300): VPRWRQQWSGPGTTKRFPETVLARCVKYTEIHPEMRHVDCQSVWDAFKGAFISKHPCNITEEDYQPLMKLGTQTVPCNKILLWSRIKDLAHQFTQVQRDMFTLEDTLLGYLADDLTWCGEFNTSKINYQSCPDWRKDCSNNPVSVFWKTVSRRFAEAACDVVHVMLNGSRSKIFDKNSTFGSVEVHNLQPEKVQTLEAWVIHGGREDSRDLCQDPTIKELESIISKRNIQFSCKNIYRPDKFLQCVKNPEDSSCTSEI
Protocol: as §1, §2, §3, §4, §5

| IC50 for CD38 (in words) [1] | Reversibility of the inhibitory effects on CD38 ([2]; 30 min pre-incubation with 500 μM sUA, 100-fold dilution, hCD38, A549, THP-1) | Mode of inhibition of CD38 ([2]; different substrate concentrations, Figure 1C, D) | Structure (SMILES) |
| --- | --- | --- | --- |
| millimolar range | – | – | O=C(O)c1nc(=O)[nH]c(=O)[nH]1 [OA, oxonic acid, reference compound] |
| – | reversible | non-competitive inhibitor | O=c1[nH]c(=O)c2[nH]c(=O)[nH]c2[nH]1 [sUA, uric acid] |
